{"source": "patent US20170101678A1", "about": "“METHOD FOR SCREENING RISK OF DRUG-INDUCED TOXICITY” (RESEARCH CENTER FOR BIOTECHNOLOGY AND MEDICINE POLICY, priority 2014, published 2017)", "origin": "cited, not measured here", "conditions": "patients treated with INH", "note": "Like-named read-outs stand apart in the source and are kept apart here.", "data": [{"smiles": "NNC(=O)c1ccncc1", "note": "[INH, Isoniazid]", "values": [{"measurement": "patients developing hepatitis or increased liver readings", "setting": "CYP2E1 1A/1A genotype", "result": 39, "unit": "%"}, {"measurement": "patients developing hepatitis or increased liver readings", "setting": "CYP2E1 1A/1B genotype", "result": 15, "unit": "%"}]}]}
